Test results taken from patent publication US20140274713A1, “IONIC LIQUIDS AND USES THEREOF” (OMS Investments, Inc., priority 2013, published 2014).

Assay: Dissolution in Dowanol DPM under high shear
Type: physicochemical
Conditions: Dowanol DPM (dipropylene glycol methyl ether)

COC(=O)c1ccccc1S(=O)(=O)NC(=O)Nc1nc(C)nc(OC)n1 [MSM, methsulfuron methyl]
Dissolution in Dowanol DPM: did not dissolve
